Measured values as given in patent USRE49579E1, “Non-peptidic GAPDH aggregation inhibitor” (University Public Corporation Osaka, priority 2015, dated 2023).
Where two headings read alike, the source gives them in different places. Residues, ends and D or L forms follow the SMILES beside them. No end group written: not given here.

Key:
[1] = system: Aβ1-40 induced PC12 cell death; assay: Protective effects on amyloid β induced cell death in the presence of GAPDH-Seeds; format: cell-based; details: GAPDH-Seeds (1%), GAI-17 50 μM, FIG. 2
[2] = target: T1, Aβ25-35 (Homo sapiens, UniProt P05067); assay: Specificity: effect on amyloid formation (second screening C, fluorescence); format: biochemical; details: 25 μM amyloid β, 37° C., 1 hour
T1 construct: Aβ25-35
Procedure: (§1) As the second screening, A) the viability of PC12 cells in the presence of a peptide, which represented cytotoxicity, B) effects on the GAPDH enzymatic activity, which represented side effects, and C) effects on amyloid formation, which represented specificity, were each investigated.
A solution containing 25 μM […] was incubated at 37° C. for 1 hour, and formation of amyloid aggregates was evaluated using the fluorescence intensity from the solution in accordance with a method described in Patent Document 1.

[3] = target: T2, purified human GAPDH (Homo sapiens, UniProt P04406); assay: GAPDH aggregation inhibitory activity (first screening, turbidity at 405 nm); format: biochemical; details: for 1st. Screening Potency Inhibitory activity (%) (50 μM at 48 h) in vitro: 50 μM peptide, 5 μM GAPDH, 37° C.
Procedure: As the first screening, GAPDH aggregation inhibitory activities, which represents potency, were measured. According to a method described in Patent Document 1, a peptide was added to a solution in which 5 μM purified human GAPDH was dissolved in Buffer G2 so that, the concentration of the peptide was 50 μM, and then incubated at 37° C. for 48 hours. Then the aggregation inhibitory rate of GAPDH was measured using the turbidity (absorbance at 405 nm) of the solution.

[4] = system: stroke model mouse; assay: Cerebroprotective effects in a stroke model (MCAO); format: in vivo; details: 60 nmol/mouse intraventricular, FIG. 4
Procedure: To a stroke model mouse, 60 nmol/mouse of a peptide was intraventricularly administered, and the reduction in cerebral infarction volume and the improvement in neurological symptoms after 24 hours were determined. The stroke model mouse was prepared in accordance with a method by of Andrabi et al. (Andrabi et al., Nat Med., 2011, June; 17(6): 692-9). A mouse was maintained under the state of ischemia for 30 minutes, and then perfusion was re-started. The cerebral infarction volume was measured […] after ischemia started. Further, in accordance with the method by Andrabi et al. (supra), a neurological score was determined for neurological symptoms of the mouse to evaluate the improvement in neurological symptoms.

[5] = system: Aβ40-treated PC12 cells; assay: Cytoprotective effects on Aβ1-40 induced PC12 cell death (third screening); format: cell-based
[6] = target: T2, purified human GAPDH; assay: Side effects: effect on GAPDH enzymatic activity (second screening B); format: biochemical; details: for 2nd. Screening Side effect Effect on GAPDH Activity (%) in vitro: 10 μM peptide, 0.01 μM GAPDH
Procedure: as §1
A 10 μM peptide was added to 0.01 μM purified human GAPDH, and the enzymatic activity of GAPDH was measured in accordance with a method described in Patent Document 1.

[7] = Cytotoxicity: viability of PC12 cells in the presence of peptide (second screening A); format: cell-based; details: rat, PC12 cells
Procedure: as §1
(§2) PC12 cells cultured to 80% confluence were cultured at 37° C. for 72 hours in the presence of 50 μM peptide, and the cell viability was measured in accordance with the conventional method.

[8] = system: PC12 cells; assay: as above; format: cell-based; details: FIG. 7
Procedure: as §1, §2

[9] = read-out: IC50 (MEAN ± S.E.) for the GAPDH aggregation inhibitory activity in vitro

T2 sequence (P04406 whole entry): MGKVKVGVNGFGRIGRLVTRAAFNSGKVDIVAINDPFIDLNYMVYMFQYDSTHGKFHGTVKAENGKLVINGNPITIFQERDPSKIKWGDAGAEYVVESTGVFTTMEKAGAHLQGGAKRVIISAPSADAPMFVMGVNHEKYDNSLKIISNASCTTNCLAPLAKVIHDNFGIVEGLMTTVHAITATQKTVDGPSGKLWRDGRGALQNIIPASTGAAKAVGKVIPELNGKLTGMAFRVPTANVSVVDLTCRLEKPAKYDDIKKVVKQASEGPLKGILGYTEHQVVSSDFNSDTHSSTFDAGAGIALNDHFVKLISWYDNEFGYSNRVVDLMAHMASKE

IC50 [3, 9] | aggregation inhibitory activity in the first screening, compared with lead compound ([3]; FIG. 6) | Compound | protective effects on amyloid β40 induced PC12 cell death [1] | 2nd. Screening Specificity Effect on Aβ25-35 amyloidogenesis (%) in vitro [2] | 1st. Screening Potency Inhibitory activity (%) (50 μM at 48 h) in vitro [3] | cerebral infarction volume [4] | neurological symptoms ([4]; after 24 hours) | 3rd. Screening Effectiveness Cytoprotection (%) in Aβ40-treated PC12 cells [5] | 2nd. Screening Side effect Effect on GAPDH Activity (%) in vitro [6] | viability at 72 h, 50 µM [7] | IC50 [3] | viability at 72 h, 50 µM ([7]; 50 μM peptide, 37° C., 72 hours, read-out: 2nd. Screening Cytotoxicity Cell viability (%) in PC12 cells) | GAPDH enzymatic activity in the second screening ([6]; FIG. 7) | cytotoxicity in the second screening, compared with lead compound [8]
1.19 ± 0.15 µM | – | C[C@@H](O)[C@H](NC(=O)[C@H](CS)NC(=O)[C@@H](N)CO)C(=O)O [GAI-17, SCT] (H-Ser-Cys-Thr-OH; N-terminus and C-terminus assumed) | protective effects | 102 ± 6.39% | 97.7 ± 1.48% | decrease cerebral infarction volume | improve neurological symptoms | 99.4 ± 1.21% | 97.9 ± 0.72% | 100 ± 0.76% | – | – | – | –
– | – | SNASCTTNAL [GAI-1, SNASCTTNAL, reference compound] | – | 103 ± 9.94% | 53.2 ± 1.73% | – | – | 48.0 ± 3.85% | 105 ± 1.80% | – | 50 ± 0.2 µM | 104 ± 1.37% | – | –
0.9 ± 0.11 µM | superior to that of the lead compound | C[C@@H](O)CNC(=O)[C@H](CS)NCCCO [TN-101] | – | – | – | – | – | – | – | – | – | – | uninhibited GAPDH enzymatic activity | comparable with or smaller than those of the lead compound
